Results reported in US11851449B2, “Heterocyclic amide compounds having an RORvt inhibitory action” (TAKEDA PHARMACEUTICAL COMPANY LIMITED, priority 2013, dated 2023).
Where two headings read alike, the source gives them in different places.

Columns and labels:
RORγt [1] = biological target: T1, RORγt (Homo sapiens, UniProt P51449); assay: Cofactor recruitment test (Alpha Screen, biotinylated SRC-1 peptide); type: biochemical; conditions: read-out: signal value inhibitory rate (%) at test compound 1 μM
T1 sequence (P51449 1-497 isoform P51449-2): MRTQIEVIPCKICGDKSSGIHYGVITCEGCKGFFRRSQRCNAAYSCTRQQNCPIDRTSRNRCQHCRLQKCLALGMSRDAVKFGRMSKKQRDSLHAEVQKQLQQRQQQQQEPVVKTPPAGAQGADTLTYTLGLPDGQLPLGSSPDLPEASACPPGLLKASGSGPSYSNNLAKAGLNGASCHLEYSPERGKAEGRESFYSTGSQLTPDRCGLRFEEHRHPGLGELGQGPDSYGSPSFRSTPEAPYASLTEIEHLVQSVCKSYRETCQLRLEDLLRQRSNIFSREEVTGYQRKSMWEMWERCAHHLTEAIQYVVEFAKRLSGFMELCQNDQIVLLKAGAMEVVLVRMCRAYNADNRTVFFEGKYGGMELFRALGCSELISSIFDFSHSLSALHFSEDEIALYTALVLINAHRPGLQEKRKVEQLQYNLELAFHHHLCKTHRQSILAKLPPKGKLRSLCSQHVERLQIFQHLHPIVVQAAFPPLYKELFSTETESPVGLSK
Method: Cofactor Recruitment Test
Cofactor recruitment test was performed by Alpha Screen (Histidine Detection Kit, PerkinElmer) method. First, a test compound was diluted with an assay buffer (50 mM Tris-HCl (pH 7.5), 50 mM KCl, 1 mM DTT, 0.1% BSA) and added to a 384 well plate by 5 μL. […] The mixture was stood in a dark place for 1 hr, and the signal value was measured by Envision (PerkinElmer).

RORγt [2] = biological target: T1, RORγt; assay: Jurkat reporter test (human IL-17 ROR response element luciferase reporter); type: cell-based; conditions: read-out: luminescence level inhibitory rate (%) at test compound 3 μM
Summary of the method: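 Luminescence (Bright-Glo, 10 min, RT) was measured after overnight compound treatment of electroporated Jurkat cells (1350 V, 10 ms interval, 3 pulses). The reaction medium was RPMI with 10% lipid-reduced FCS, 10 mM HEPES (pH 7.5) and 5 μM lovastatin.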

RORγt [3] = biological target: T1, RORγt; assay: RORγt binding test (TR-FRET, fluorescent-labeled cholesterol); conditions: read-out: binding inhibitory rate (%) of fluorescent-labeled cholesterol to RORγt at test compound 1 μM
Summary of the method: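 His-tagged RORγt and BODIPY-cholesterol were incubated with compound for 20 min at room temperature in Tris-HCl pH 7.5, 100 mM NaCl, 1 mM DTT and 0.1% BSA. Terbium anti-His antibody was then added for a further 20 min.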

[4] = test compound 3 μM, Jurkat cells

inhibition at 1 µM (RORγt [1]) [%] | inhibition at 3 µM (RORγt [2]; [4]) [%] | inhibition at 1 µM (RORγt [3]) [%] | Compound | inhibition at 3 µM (RORγt [2]; Jurkat) [%]
85.5 | 100 | 101 | COCc1ccc([C@@H](NC(=O)Cc2nnc(C)o2)C(=O)Nc2ccc(C(C)(C)C)c(F)c2)cc1 [Example 105, (2R)—N-(4-tert-butyl-3-fluorophenyl)-2-(4-(methoxymethyl)phenyl)-2-(((5-methyl-1,3,4-oxadiazol-2-yl)acetyl)amino)acetamide] | 
53 | 97.4 | 100 | CC(C)(C)c1ccc(NC(=O)[C@H](NC(=O)[C@@H]2CNC(=O)C2)c2ccc3c(c2)CCO3)cc1F [Example 111, (3S)—N-((1R)-2-((4-tert-butyl-3-fluorophenyl)amino)-1-(2,3-dihydro-1-benzofuran-5-yl)-2-oxoethyl)-5-oxopyrrolidine-3-carboxamide] | 
83.9 | 99.7 | 102 | COCc1ccc([C@@H](NC(=O)[C@H]2CNC(=O)C2)C(=O)Nc2cc(F)c(C(C)(C)C)c(F)c2)cc1 [Example 113, (3R)—N-((1R)-2-((4-tert-butyl-3,5-difluorophenyl)amino)-1-(4-(methoxymethyl)phenyl)-2-oxoethyl)-5-oxopyrrolidine-3-carboxamide] | 
90.1 | 102 | 101 | COCc1ccc([C@@H](NC(=O)Cc2cc(O)no2)C(=O)Nc2cc(F)c(C(C)(C)C)c(F)c2)cc1 [Example 114, (2R)—N-(4-tert-butyl-3,5-difluorophenyl)-2-(((3-hydroxy-1,2-oxazol-5-yl)acetyl)amino)-2-(4-(methoxymethyl)phenyl)acetamide] | 
76.6 | 99.8 | 103 | COCc1ccc([C@@H](NC(=O)Cn2ccc(=O)[nH]c2=O)C(=O)Nc2ccc(C(C)(C)C)c(F)c2)cc1 [Example 116, (2R)—N-(4-tert-butyl-3-fluorophenyl)-2-(((2,4-dioxo-3,4-dihydropyrimidin-1(2H)-yl)acetyl)amino)-2-(4-(methoxymethyl)phenyl)acetamide] | 
78.4 | 98.5 | 103 | COCc1ccc([C@@H](NC(=O)CC2CC(=O)NC(=O)C2)C(=O)Nc2ccc(C(C)(C)C)c(F)c2)cc1 [Example 117, (2R)—N-(4-tert-butyl-3-fluorophenyl)-2-(((2,6-dioxopiperidin-4-yl)acetyl)amino)-2-(4-(methoxymethyl)phenyl)acetamide] | 
87 | 101 | 103 | Cn1ncc2cc([C@@H](NC(=O)Cc3cc(O)no3)C(=O)Nc3cc(F)c(C(C)(C)C)c(F)c3)ccc21 [Example 419, (2R)-N-(4-tert-butyl-3,5-difluorophenyl)-2-(((3-hydroxy-1,2-oxazol-5-yl)acetyl)amino)-2-(1-methyl-1H-indazol-5-yl)acetamide] | 

Second part, the compound before the results:

Compound | inhibition at 1 µM (RORγt [1]) [%] | inhibition at 3 µM (RORγt [2]; [4]) [%] | inhibition at 1 µM (RORγt [3]) [%] | inhibition at 3 µM (RORγt [2]; Jurkat) [%]
COCc1ccc([C@@H](NC(=O)Cn2cnccc2=O)C(=O)Nc2ccc(C(C)(C)C)c(F)c2)cc1 [Example 100, (2R)—N-(4-tert-butyl-3-fluorophenyl)-2-(4-(methoxymethyl)phenyl)-2-(((6-oxopyrimidin-1(6H)-yl)acetyl)amino)acetamide] | 86.3 | 99.4 | 99.6 | 
COCc1ccc([C@@H](NC(=O)[C@@H]2CNC(=O)C2)C(=O)Nc2ccc(C(C)(C)C)c(F)c2)cc1 [Example 101, (3S)—N-((1R)-2-((4-tert-butyl-3-fluorophenyl)amino)-1-(4-(methoxymethyl)phenyl)-2-oxoethyl)-5-oxopyrrolidine-3-carboxamide] | 87.6 | 99.5 | 101 | 
COCc1ccc([C@@H](NC(=O)[C@H]2CNC(=O)C2)C(=O)Nc2ccc(C(C)(C)C)c(F)c2)cc1 [Example 102, (3R)—N-((1R)-2-((4-tert-butyl-3-fluorophenyl)amino)-1-(4-(methoxymethyl)phenyl)-2-oxoethyl)-5-oxopyrrolidine-3-carboxamide] | 83.8 | 97.8 | 100 | 
COCc1ccc([C@@H](NC(=O)CC(C)(C)C(=O)O)C(=O)Nc2cc(F)c([Si](C)(C)C)c(F)c2)cc1 [Example 103, 4-(((1R)-2-((3,5-difluoro-4-(trimethylsilyl)phenyl)amino)-1-(4-(methoxymethyl)phenyl)-2-oxoethyl)amino)-2,2-dimethyl-4-oxobutanoic acid] | 96.2 |  | 102 | 100
COCc1ccc(C(NC(=O)[C@@H]2CNC(=O)C2)C(=O)Nc2ccc(C(C)(C)C)c(Cl)c2)cc1 (stereo partly drawn) [Example 104, (3S)—N-(2-((4-tert-butyl-3-chlorophenyl)amino)-1-(4-(methoxymethyl)phenyl)-2-oxoethyl)-5-oxopyrrolidine-3-carboxamide] | 74.9 | 96.1 | 101 | 
COCc1ccc([C@@H](NC(=O)CCCC(=O)O)C(=O)Nc2cc(F)c([Si](C)(C)C)c(F)c2)cc1 [Example 107, 5-(((1R)-2-((3,5-difluoro-4-(trimethylsilyl)phenyl)amino)-1-(4-(methoxymethyl)phenyl)-2-oxoethyl)amino)-5-oxopentanoic acid] | 95.7 |  | 103 | 100
COCc1ccc([C@@H](NC(=O)CCC(=O)O)C(=O)Nc2cc(F)c([Si](C)(C)C)c(F)c2)cc1 [Example 108, 4-(((1R)-2-((3,5-difluoro-4-(trimethylsilyl)phenyl)amino)-1-(4-(methoxymethyl)phenyl)-2-oxoethyl)amino)-4-oxobutanoic acid] | 95.3 |  | 100 | 99.7
Cn1ncc2cc([C@@H](NC(=O)[C@@H]3CNC(=O)C3)C(=O)Nc3ccc([Si](C)(C)C)c(F)c3)ccc21 [Example 112, (3S)—N-((1R)-2-((3-fluoro-4-(trimethylsilyl)phenyl)amino)-1-(1-methyl-1H-indazol-5-yl)-2-oxoethyl)-5-oxopyrrolidine-3-carboxamide] | 83.2 |  | 103 | 100
COc1ccc(C(NC(=O)Cn2cnc3ccccc32)C(=O)Nc2ccc([Si](C)(C)C)cc2)cc1 (stereo not drawn) [Example 289, 2-((1H-benzimidazol-1-ylacetyl)amino)-2-(4-methoxyphenyl)-N-(4-(trimethylsilyl)phenyl)acetamide] | 87.2 |  | 99.6 | 100
